Legend:
PDE IV [1] = experiment: inhibition of PDE IV from the canine trachea; type: biochemical; conditions: for [IC50]theophylline / [IC50]substance: PDE IV canine trachea, quotient of IC50 values, theophylline = 1; for -log[IC50] PDE IV canine trachea: cAMP 0.5 μmol/l, 37° C., 20 minutes
Description: (§1) The inhibition of phosphodiesterases of classes III (PDE III=high-affinity cAMP-PDE which can be inhibited by cGMP) and IV (PDE IV=high-affinity cAMP-PDE which cannot be inhibited by cGMP, Rolipram-sensitive) is regarded as being particularly conclusive for a bronchospasmolytic and/or antiinflammatory action which may be expected [H. Hidaka et al., Adv. Cycl. Nucl. Res. 13, 145 (1984); Tips 5, 237 (1984); R. Weishaar et al., J. Med. Chem. 28, 537 (1985); S. A. Harrison et al., Molec. Pharmac. 29, 506 (1986); J. Klein-Tebbe et al., Allergologie 12, 12 (1989); C. Schudt et al., Allergologie 12, 12 (1989)].
(§2) The PDE inhibition of the compounds according to the invention was therefore determined on a PDE III isolated from human platelets and PDE IV isolated from human neutrophilic polymorphonuclear cells (PMNs) and from the canine trachea. The phosphodiesterases III and IV are isolated by chromatography by the method of Polson et al., Biochem. Pharmacol. 31, 3403-3406 (1982).
(§3) The substances are dissolved in DMSO and diluted further. From a series of solutions diluted up to a hundred-fold, 2.1 μl portions are taken and 212 μl reaction mixture are added. The reaction mixture contains Hepes (100 mmol/l), DTE (5 mmol/l), MgCl2 (5 mmol/l), CaCl2 (10 μmol/l), BSA fraction V 0.5 mg/ml, cAMP 0.5 μmol/l, 2,8-^3 H-cAMP 250,000 cpm/ml (0.3 μCi/ml, s.a. 33.5 μCi/mmol) and SV (snake venom) (25 μg/212 μl test batch).
(§4) The reaction is started by addition of 10 μl PDE to the reaction mixture and to the substance batch. The mixtures are then incubated at 37° C. for 20 minutes. The reaction is stopped by heating at 95° C. for 45 seconds. After the samples have cooled, the SV solution is added, the 5-AMP formed being cleaved. After incubation for 30 minutes at 37° C., this reaction is stopped by addition of 1 ml anion exchanger suspension. The cAMP which remains is thereby bonded. The adenosine formed remains in the supernatant after centrifugation and can be measured in an aliquot by the radioactivity contained therein.

[2] = test system: trachea (tracheal ring chain of the guinea-pig); experiment: trachea-relaxing action: relaxation of contractions generated by histamine, carbachol, prostaglandin, ovalbumin and leukotriene; type: cell-based; conditions: Cavia porcellus; read-out: trachea-relaxing action, contraction by OA (converted)
Protocol: (§5) The bronchospasmolytic action of the compounds on the tracheal ring chain of the guinea-pig was tested in vitro as follows: Four parallel tracheal ring chains, each consisting of 6 individual rings, of the guinea-pig (female and male, 430-600 g), in an organ bath [5 ml, Krebs-Henseleit solution with addition of phentolamine (10^-5 mol/l), 37° C., pretension of the organs 2 g, gassing with carbogen] develop a stable, tonic spontaneous contraction after about 20 to 30 minutes. Relaxation can be brought about on these permanently contracted organs under isometric measurement conditions by application of the test substance in a cumulatively semi-logarithmically increasing concentration (e.g. 1×10^-6 +2×10^-6 +7×10^-6 +2×10^-5etc. mol/l), a constant relaxation response being awaited after each individual dose of the test substance before the next higher concentration is applied. A complete dose/effect curve of the test substance is thus obtained over a period of 20 to 30 minutes. The particular relaxation is expressed as the percentage fraction of the maximum relaxation which can be achieved by addition of (-)isoprenaline (10^-6 mol/l). The concentration of the test substance which causes 50% of the maximum relaxation which can be achieved serves as a measure of the bronchodilatory activity, expressed by the negative logarithm of the EC50 mol/l: -log[EC50 ].
The trachea-relaxing action of compounds 3 and 4 was additionally tested by relaxation of the contractions generated by histamine (His), carbachol (CC), prostaglandin (PGF2alpha), ovalbumin (OA) and leukotriene (LTC4).

[3] = test system: acetylcholine-induced bronchospasm; experiment: protective action against acetylcholine-induced bronchospasm on the conscious guinea-pig; type: in vivo; conditions: Cavia porcellus, 0.5 h; verum, oral, 100 μmol/kg, 30 minutes after administration; protected = latency period at least three times; read-out: Number of animals protected/number of animals used (converted)
Protocol: The bronchospasmolytic action was additionally tested on the model of "Protective action against acetylcholine-induced bronchospasm on the conscious guinea-pig":
Guinea-pigs (250-350 g) are exposed in a closed Plexiglas cylinder (volume 5 l) to an acetylcholine mist (0.06% in 0.9% sodium chloride solution; ultrasonic mister Heyer Use 77) twice before administration of the substance at an interval of 20 minutes, and 30 minutes after administration of the substance. The time from the start of misting to the onset of clear respiratory exertion (under certain circumstances hypoxic convulsions in the lateral position) is measured and defined as the latency period. A prolonging of the latency period after administration of the substance to at least three times the average latency period before administration of the substance is regarded as a protective action, and the number of protected animals in the group is stated. The test substances are administered orally by means of a stomach tube (dose 100 μmol/kg, volume 1 ml/kg, suspending agent 4% Methocel suspension in 0.9% sodium chloride solution).
The test substance is administered perorally by means of a stomach tube (standard dose 100 μmol, volume 1 ml 4% Methocel suspension in 0.9% sodium chloride solution/kg). After 30 minutes, the animals are exposed to the acetylcholine mist again and the latency periods are measured. Prolonging of the latency period to at least three times the length is regarded as a protective action.

[4] = test system: histamine-induced bronchospasm; experiment: histamine-induced bronchospasm on the anaesthetized guinea-pig; type: in vivo
Protocol: The bronchospasmolytic action was furthermore determined on the model of "histamine-induced bronchospasm on the anaesthetized guinea-pig":
In this model, pharmacodynamic and toxic effects on internal sensitive receptors, on the respiration and on the cardiovascular system of guinea-pigs are recorded simultaneously [U. Kilian, E. Muller, E. Ch.
A histamine spasm before administration of the substance was compared with several histamine spasms after administration of the substance. The test substances were administered intravenously (i.v.) and/or intrajejunally (i.j.).

PDE III = target: T1, PDE III (Homo sapiens, UniProt Q14432); experiment: inhibition of PDE III isolated from human platelets; type: biochemical; conditions: for [IC50]theophylline / [IC50]substance: PDE III, quotient of IC50 values, theophylline = 1; for IC50: human platelets, cAMP 0.5 μmol/l, 37° C., 20 minutes, read-out: -log[IC50] PDE III (converted)
T1 construct: PDE III isolated from human platelets; from tissue; host or cells: human platelets
Description: as §1, §2, §3, §4

PDE IV [5] = experiment: inhibition of PDE IV from human neutrophilic polymorphonuclear cells (PMNs); type: biochemical; conditions: for [IC50]theophylline / [IC50]substance: PDE IV human PMNs, quotient of IC50 values, theophylline = 1; for -log[IC50] PDE IV PNMs: human neutrophilic polymorphonuclear cells, cAMP 0.5 μmol/l, 37° C., 20 minutes
Description: as §1, §2, §3, §4

[6] = test system: tracheal ring chain of the guinea-pig; experiment: bronchospasmolytic action on the tracheal ring chain of the guinea-pig in vitro (relaxation of stable tonic spontaneous contraction); type: cell-based; conditions: for EC50: Cavia porcellus, EC50 in mol/l, 50% of the maximum relaxation achievable with (-)isoprenaline 10^-6 mol/l, spontaneous contraction, 37° C.; for [EC50]theophylline / [EC50]substance: quotient of EC50 values, theophylline = 1
Protocol: as §5, with “mol/l).” for “mol/l). The concentration of the test substance which causes 50% of the maximum relaxation which can be achieved serves as a measure of the bronchodilatory activity, expressed by the negative logarithm of the EC50 mol/l: -log[EC50 ].”

[7] = i.j. (intrajejunal), 20 μmol/kg
[8] = i.j. (intrajejunal), 60 μmol/kg

T1 sequence (Q14432 whole entry): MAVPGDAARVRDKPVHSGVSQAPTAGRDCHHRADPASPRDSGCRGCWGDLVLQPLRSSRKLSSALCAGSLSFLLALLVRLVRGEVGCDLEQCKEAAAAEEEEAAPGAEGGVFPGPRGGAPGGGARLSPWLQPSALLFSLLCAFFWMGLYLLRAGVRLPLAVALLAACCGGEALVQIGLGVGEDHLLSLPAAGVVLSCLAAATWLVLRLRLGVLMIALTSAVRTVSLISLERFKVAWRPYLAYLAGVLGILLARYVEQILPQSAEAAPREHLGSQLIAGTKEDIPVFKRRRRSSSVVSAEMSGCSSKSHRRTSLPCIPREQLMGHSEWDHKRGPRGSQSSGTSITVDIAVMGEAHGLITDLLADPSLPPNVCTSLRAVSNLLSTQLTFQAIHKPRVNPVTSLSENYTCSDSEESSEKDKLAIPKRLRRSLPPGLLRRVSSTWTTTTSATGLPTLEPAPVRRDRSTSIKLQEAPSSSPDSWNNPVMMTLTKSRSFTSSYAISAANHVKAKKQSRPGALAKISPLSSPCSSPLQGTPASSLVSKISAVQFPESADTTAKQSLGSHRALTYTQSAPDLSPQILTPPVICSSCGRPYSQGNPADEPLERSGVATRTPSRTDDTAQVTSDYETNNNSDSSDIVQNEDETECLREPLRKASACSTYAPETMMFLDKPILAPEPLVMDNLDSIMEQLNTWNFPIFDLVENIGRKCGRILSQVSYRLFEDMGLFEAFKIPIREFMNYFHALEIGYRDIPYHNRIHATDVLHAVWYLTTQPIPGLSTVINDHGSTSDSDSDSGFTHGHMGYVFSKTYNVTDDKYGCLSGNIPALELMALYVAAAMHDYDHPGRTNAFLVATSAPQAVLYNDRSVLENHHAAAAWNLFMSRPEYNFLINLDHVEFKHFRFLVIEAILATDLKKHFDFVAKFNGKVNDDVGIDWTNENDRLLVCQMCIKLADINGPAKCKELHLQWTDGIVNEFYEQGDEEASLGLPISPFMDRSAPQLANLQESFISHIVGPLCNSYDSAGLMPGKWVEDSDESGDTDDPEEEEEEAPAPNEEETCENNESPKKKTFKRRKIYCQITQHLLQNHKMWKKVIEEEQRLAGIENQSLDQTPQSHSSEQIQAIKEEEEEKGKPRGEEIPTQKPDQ

Structure (SMILES): COc1ccc(-c2ccc(NC#N)nn2)cc1OC(C)C [Compound 3, 3-Cyanamino-6-[4-methoxy-3-(1-methylethoxy)phenyl]pyridazine]
- [IC50]theophylline / [IC50]substance (PDE IV [1]): 82.2
- -log[IC50] PDE IV canine trachea (PDE IV [1]): 5.75
- EC50 [2]: 646 nM
- responders at 100 µmol/kg [3]: 70%
- Average percentage bronchospasmolytic action 0-1 h p. appl., % inhibition of the histamine-induced decrease in Vmaxe [4, 7]: 29%
- Average percentage bronchospasmolytic action 0-1 h p. appl., % inhibition of the histamine-induced decrease in Vmaxe [4, 8]: 65%
- Average percentage bronchospasmolytic action 0-1 h p. appl., % inhibition of the histamine-induced decrease in Vmaxe ([4]; i.v., 20 μmol/kg): 28%
- Average percentage bronchospasmolytic action 0-1 h p. appl., % inhibition of the histamine-induced decrease in Vmaxe ([4]; i.v., 60 μmol/kg): 65%
- [IC50]theophylline / [IC50]substance (PDE III): 30.8
- IC50 (PDE III): 5250 nM
- [IC50]theophylline / [IC50]substance (PDE IV [5]): 117
- -log[IC50] PDE IV PNMs (PDE IV [5]): 5.82
- EC50 [6]: 417 nM
- [EC50]theophylline / [EC50]substance [6]: 324

Structure (SMILES): COc1ccc(-c2ccc(NC#N)nn2)cc1OCC(C)C [Compound 4, 3-Cyanamino-6-[4-methoxy-3-(2-methylpropoxy)phenyl]pyridazine]
- [IC50]theophylline / [IC50]substance (PDE IV [1]): 355
- -log[IC50] PDE IV canine trachea (PDE IV [1]): 6.36
- EC50 [2]: 398 nM
- responders at 100 µmol/kg [3]: 85%
- Average percentage bronchospasmolytic action 0-1 h p. appl., % inhibition of the histamine-induced decrease in Vmaxe [4, 7]: 39%
- Average percentage bronchospasmolytic action 0-1 h p. appl., % inhibition of the histamine-induced decrease in Vmaxe [4, 8]: 60%
- Average percentage bronchospasmolytic action 0-1 h p. appl., % inhibition of the histamine-induced decrease in Vmaxe ([4]; i.v., 20 μmol/kg): 37%
- Average percentage bronchospasmolytic action 0-1 h p. appl., % inhibition of the histamine-induced decrease in Vmaxe ([4]; i.v., 60 μmol/kg): 87%
- [IC50]theophylline / [IC50]substance (PDE III): 26.9
- IC50 (PDE III): 6030 nM
- [IC50]theophylline / [IC50]substance (PDE IV [5]): 357
- -log[IC50] PDE IV PNMs (PDE IV [5]): 6.33
- EC50 [6]: 112 nM
- [EC50]theophylline / [EC50]substance [6]: 1203

Structure (SMILES): COc1ccc(-c2ccc(NC#N)nn2)cc1OC [Compound 10, 3-Cyanamino-6-(3,4-dimethoxyphenyl)pyridazine]
- [IC50]theophylline / [IC50]substance (PDE IV [1]): 74.1
- -log[IC50] PDE IV canine trachea (PDE IV [1]): 5.68
- [IC50]theophylline / [IC50]substance (PDE III): 15.1
- IC50 (PDE III): 10700 nM
- EC50 [6]: 7080 nM
- [EC50]theophylline / [EC50]substance [6]: 19.1

Structure (SMILES): CCOc1cc(-c2ccc(NC#N)nn2)ccc1OC(F)F [Compound 12, 3-Cyanamino-6-(4-difluoromethoxy-3-ethoxyphenyl)pyridazine]
- [IC50]theophylline / [IC50]substance (PDE IV [1]): 97.8
- -log[IC50] PDE IV canine trachea (PDE IV [1]): 5.80
- responders at 100 µmol/kg [3]: 70%
- Average percentage bronchospasmolytic action 0-1 h p. appl., % inhibition of the histamine-induced decrease in Vmaxe ([4]; i.v., 20 μmol/kg): 50%
- EC50 [6]: 2450 nM
- [EC50]theophylline / [EC50]substance [6]: 55.0

Structure (SMILES): CCOc1ccc(-c2ccc(NC#N)nn2)cc1OCC(C)C [Compound 13, 3-Cyanamino-6-[4-ethoxy-3-(2-methylpropoxy)phenyl]pyridazine]
- responders at 100 µmol/kg [3]: 65%
- Average percentage bronchospasmolytic action 0-1 h p. appl., % inhibition of the histamine-induced decrease in Vmaxe ([4]; i.v., 20 μmol/kg): 28%
- [IC50]theophylline / [IC50]substance (PDE IV [5]): 263
- -log[IC50] PDE IV PNMs (PDE IV [5]): 6.18
- EC50 [6]: 537 nM
- [EC50]theophylline / [EC50]substance [6]: 251

Structure (SMILES): CC(C)Oc1cc(-c2ccc(NC#N)nn2)ccc1OC(F)F [Compound 16, 3-Cyanamino-6-[4-difluoromethoxy-3-(1-methylethoxy)phenyl]pyridazine]
- responders at 100 µmol/kg [3]: 50%
- [IC50]theophylline / [IC50]substance (PDE IV [5]): 550
- -log[IC50] PDE IV PNMs (PDE IV [5]): 6.50
- EC50 [6]: 661 nM
- [EC50]theophylline / [EC50]substance [6]: 204

Structure (SMILES): N#CNc1ccc(-c2ccc(OC(F)F)c(OCC3CC3)c2)nn1 [Compound 18, 3-Cyanamino-6-(3-cyclopropylmethoxy-4-difluoromethoxyphenyl)pyridazine]
- responders at 100 µmol/kg [3]: 50%
- [IC50]theophylline / [IC50]substance (PDE IV [5]): 759
- -log[IC50] PDE IV PNMs (PDE IV [5]): 6.64
- EC50 [6]: 562 nM
- [EC50]theophylline / [EC50]substance [6]: 240

Structure (SMILES): N#CNc1ccc(-c2ccc(OC(F)F)c(OCC(F)(F)F)c2)nn1 [Compound 20, 3-Cyanamino-6-[4-difluoromethoxy-3-(2,2,2-trifluoroethoxy)phenyl] pyridazine]
- responders at 100 µmol/kg [3]: 55%
- [IC50]theophylline / [IC50]substance (PDE IV [5]): 148
- -log[IC50] PDE IV PNMs (PDE IV [5]): 5.93
- EC50 [6]: 2290 nM
- [EC50]theophylline / [EC50]substance [6]: 58.9

Structure (SMILES): Cn1c(=O)c2[nH]cnc2n(C)c1=O [Theophylline, theophylline, reference compound]
- -log[IC50] PDE IV canine trachea (PDE IV [1]): 3.81
- EC50 [2]: 288000 nM
- responders at 100 µmol/kg [3]: 30%
- Average percentage bronchospasmolytic action 0-1 h p. appl., % inhibition of the histamine-induced decrease in Vmaxe [4, 7]: 11%
- Average percentage bronchospasmolytic action 0-1 h p. appl., % inhibition of the histamine-induced decrease in Vmaxe [4, 8]: 37%
- Average percentage bronchospasmolytic action 0-1 h p. appl., % inhibition of the histamine-induced decrease in Vmaxe ([4]; i.j. (intrajejunal), 100 μmol/kg): 45%
- Average percentage bronchospasmolytic action 0-1 h p. appl., % inhibition of the histamine-induced decrease in Vmaxe ([4]; i.v., 20 μmol/kg): 13%
- Average percentage bronchospasmolytic action 0-1 h p. appl., % inhibition of the histamine-induced decrease in Vmaxe ([4]; i.v., 60 μmol/kg): 25%
- Average percentage bronchospasmolytic action 0-1 h p. appl., % inhibition of the histamine-induced decrease in Vmaxe ([4]; i.v., 100 μmol/kg): 34%
- -log[IC50] PDE IV PNMs (PDE IV [5]): 3.76
